# Measurements reported in patent US7638510B2, “Use of s-10-hydroxy-10,11-dihydro-carbamazepine for the treatment of anxiety and bipolar disorders” (Novartis AG, priority 2003, dated 2009).
# Tested on: rat
# Assay: Vogel conflict test (punished drinking)
# Type: in vivo
# Conditions: for PUNISHED DRINKING (number of shocks) mean ± s.e.m.: 3 minute period; for PUNISHED DRINKING % change from control: vs vehicle; for efficacy compared between racemate and enantiomers: 50-200 mg/kg p.o.; for efficacy compared with the positive control clobazam: 50-200 mg/kg p.o. vs clobazam 64 mg/kg
# Description: a) Description of method: The method, which detects anxiolytic and related other psychiatric activity, follows that described by Vogel et al, Psychopharmacologia 1971; 21:1-7 Anxiolytics and antidepressants (e.g., Fontana et al., Psychopharmacology 1989; 98(2):157-62) of various classes increase punished drinking.
# Rats are deprived of water for 48 hours and are then placed individually into a transparent Plexiglas enclosure (15×32×34 cm) with a floor consisting of stainless steel bars (0.4 cm) spaced 1 cm apart The back wall of the enclosure is made of opaque Plexiglass thereby concealing the observer from the experimental animal. In the centre of the opposite wall, 5 cm above the floor, a metal water spout protrudes into the cage and is connected to one pole of a shock generator (Apelex: Type 011346). The other pole of the shock generator is connected to the metal grid floor. The rat is left to explore until it found the water spout. Then, every time it drinks, it receives a slight electric shock (1.7 mA, 1 sec.) 2 seconds after it starts lapping. The number of shocks received (punished drinkings) is counted during a 3 minute period. 15 rats are studied per group. The test is performed blind. Compounds are evaluated at 50, 100 and 200 mg/kg, administered p.o. 60 minutes before the test, and compared with a vehicle control group. Clobazam (64 mg/kg), administered under the same experimental conditions, is used as reference substance. All substances are evaluated within the same experiment and compared with the same vehicle and reference substance controls. Data are analyzed by comparing treated groups with vehicle control using unpaired Student's t tests.
Compound,PUNISHED DRINKING (number of shocks) mean ± s.e.m. (50 mg/kg p.o. -60 min),PUNISHED DRINKING % change from control (50 mg/kg p.o. -60 min),PUNISHED DRINKING (number of shocks) mean ± s.e.m. (100 mg/kg p.o. -60 min),PUNISHED DRINKING % change from control (100 mg/kg p.o. -60 min),PUNISHED DRINKING (number of shocks) mean ± s.e.m. (200 mg/kg p.o. -60 min),PUNISHED DRINKING % change from control (200 mg/kg p.o. -60 min),efficacy compared between racemate and enantiomers,PUNISHED DRINKING (number of shocks) mean ± s.e.m. (64 mg/kg p.o. -60 min),PUNISHED DRINKING % change from control (64 mg/kg p.o. -60 min),efficacy compared with the positive control clobazam
"NC(=O)N1c2ccccc2CC(O)c2ccccc21 (racemic) [M3, 10-hydroxy-10,11-dihydro-carbamazepine]",5.9 ± 0.5 number of shocks,+34%,8.4 ± 1.0 number of shocks,+91%,10.4 ± 1.5 number of shocks,+136%,between that of the R- and S-enantiomers,–,–,–
"CN1C(=O)CC(=O)N(c2ccccc2)c2cc(Cl)ccc21 [CLOBAZAM, Clobazam, reference compound]",–,–,–,–,–,–,–,8.2 ± 1.1 number of shocks,+86%,–
"NC(=O)N1c2ccccc2C[C@@H](O)c2ccccc21 [M4, R(−)-10,11-dihydro-10-hydroxy-5H-dibenzo[b,f]azepine-5-carboxamide]",5.0 ± 0.4 NS number of shocks,+14%,5.5 ± 0.5 NS number of shocks,+25%,7.4 ± 1.3 number of shocks,+68%,less efficacious than the S-enantiomer at the lowest dose used,–,–,less than that of the positive control
"NC(=O)N1c2ccccc2C[C@H](O)c2ccccc21 [M5, S(+)-10,11-dihydro-10-hydroxy-5H-dibenzo[b,f]azepine-5-carboxamide]",8.4 ± 1.3 number of shocks,+91%,9.5 ± 1.0 number of shocks,+116%,10.5 ± 1.3 number of shocks,+139%,–,–,–,surpasses that of clobazam at all doses tested
